In PubChem BioAssay AID2744 (NMMLSC, 2010):
pEC50: −log10 of the molar value. Calls of active or inactive are those of the source.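 How the source made its calls: active means fitted half-maximal concentration for changing reporter fluorescence at or below a set limit; inactive means the rest.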

Molecular target: Citrate synthase, peroxisomal (Saccharomyces cerevisiae (strain ATCC 204508 / S288c)) (UniProt P08679)
Experiment: CIT2-GFP expression modulators in yeast, dose response, flow cytometry, MLPCN hits (AID 2744)
Settings: S. cerevisiae CIT2-GFP strain, 3 h; for GFP fluorescence, higher = induction: at 33 µM (top of the series); for pEC50: flow cytometry fluorescence

Chain of Citrate synthase, peroxisomal (Saccharomyces cerevisiae (strain ATCC 204508 / S288c)) (P08679 whole entry, looked up): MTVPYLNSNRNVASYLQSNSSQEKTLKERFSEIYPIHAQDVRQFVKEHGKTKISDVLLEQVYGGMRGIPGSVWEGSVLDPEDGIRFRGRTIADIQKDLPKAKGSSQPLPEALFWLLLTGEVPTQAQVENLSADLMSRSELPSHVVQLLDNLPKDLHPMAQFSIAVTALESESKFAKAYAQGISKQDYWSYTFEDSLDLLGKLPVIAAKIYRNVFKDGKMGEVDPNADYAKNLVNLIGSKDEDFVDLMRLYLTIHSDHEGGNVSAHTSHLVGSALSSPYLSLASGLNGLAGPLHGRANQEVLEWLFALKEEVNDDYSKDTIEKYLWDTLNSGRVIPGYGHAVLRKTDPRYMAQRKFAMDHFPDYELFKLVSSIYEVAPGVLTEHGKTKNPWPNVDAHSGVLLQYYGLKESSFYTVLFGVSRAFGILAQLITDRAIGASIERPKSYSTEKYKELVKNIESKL

COc1ccc(Cl)cc1C(Nc1cccnc1)c1ccc2cccnc2c1O (stereo unspecified)
GFP fluorescence, higher = induction: inactive

Cc1ccccc1OCCOC(=O)c1ccc(S(=O)(=O)N2CCCC2)cc1
GFP fluorescence, higher = induction: inactive

[O-][n+]1cccc2c(Br)cc(Br)c(O)c21
GFP fluorescence, higher = induction: inactive

COc1ccc(/C=C/C(=O)C2C(=O)C=C(C)OC2=O)cc1O (stereo unspecified)
GFP fluorescence, higher = induction: inactive

NC(=O)COc1ccc(C(=O)/C=C2/C(=O)Nc3ccccc32)cc1
GFP fluorescence, higher = induction: inactive

C=CCn1c(C)c(/C=C/c2cc[n+](C)cc2)c2ccccc21
GFP fluorescence, higher = induction: inactive

CCN(CC)c1ccc(/C=C2\C(=O)c3ccc(C(=O)O)cc3C2=O)cc1
GFP fluorescence, higher = induction: inactive

COc1ccc(/C=C2/C(=O)ON=C2c2ccccc2)cc1OC
GFP fluorescence, higher = induction: inactive

O=C(Nc1ccc(O)cc1)C1CCCN1S(=O)(=O)c1ccc(F)cc1 (stereo unspecified)
GFP fluorescence, higher = induction: inactive

O=C(NC(=S)NNC(=O)c1cnccn1)c1ccc(F)cc1
GFP fluorescence, higher = induction: inactive

CCCCCCCCC/C(=N\O)c1ccccn1
GFP fluorescence, higher = induction: inactive

COc1ccccc1N1C(=O)c2cccc3c(C(=O)O)ccc(c23)C1=O
GFP fluorescence, higher = induction: inactive

CCOC(=O)C(C(=O)OCC)C(C(=O)OCC)N1CCOCC1 (stereo unspecified)
GFP fluorescence, higher = induction: inactive

CC(Oc1cccc(Cl)c1)C(=O)Nc1nc(-c2ccccn2)cs1 (stereo unspecified)
GFP fluorescence, higher = induction: inactive

CCOC(=O)CS(=O)(=O)c1nc(-c2ccccc2)cc(C(F)(F)F)n1
GFP fluorescence, higher = induction: inactive

COc1cccc(/C=C2\C(=O)N(c3cccc(C)c3)C(=O)c3ccccc32)c1
GFP fluorescence, higher = induction: inactive

O=C(NC(=S)NNC(=O)[C@H]1C[C@@H]1c1ccccc1)c1cccc(F)c1
GFP fluorescence, higher = induction: inactive

COC(=O)CCC(=O)OC1(C)C(=O)C2=COC(c3ccc(OC)cc3)=CC2=C(Br)C1=O (stereo unspecified)
GFP fluorescence, higher = induction: inactive

COc1cc(/C=C2\CC/C(=C\c3cc(OC)c(O)c(OC)c3)C2=O)cc(OC)c1O
GFP fluorescence, higher = induction: inactive

O=C(Oc1ccnc2cc(Cl)ccc12)N1CCCCCC1
GFP fluorescence, higher = induction: inactive

C/C(=N/NC(=O)c1ccc(C(C)(C)C)cc1)c1ccccn1
GFP fluorescence, higher = induction: inactive

COc1ccc(C=C2C(=O)c3ccccc3C2=O)cc1O
GFP fluorescence, higher = induction: inactive

Cc1ccc2c(nc3s/c(=C\c4ccc(-c5ccccc5C(=O)O)o4)c(=O)n32)c1C
GFP fluorescence, higher = induction: inactive

O=C1C2C3C=CC(CO)(O3)C2C(=O)N1c1ccc(-c2ccccc2)cc1 (stereo unspecified)
GFP fluorescence, higher = induction: inactive

Cc1cccc(NC(c2ccc(C)s2)c2ccc3ccc(C)nc3c2O)n1 (stereo unspecified)
GFP fluorescence, higher = induction: inactive

O=[N+]([O-])c1cc(Cl)c2cccnc2c1O
GFP fluorescence, higher = induction: inactive

COc1ccc2c(c1)c(/C=C/c1cc[n+](C)cc1)cn2C
GFP fluorescence, higher = induction: inactive

O=[N+]([O-])c1ccc(N=Nc2c(Cl)cc(O)cc2Cl)cc1
GFP fluorescence, higher = induction: inactive

CCN1/C(=C/C(C)=C/c2sc3ccccc3[n+]2CC)Sc2ccccc21
GFP fluorescence, higher = induction: inactive

Cc1ccc(-c2nc(N)c3c(-c4ccc(C)cc4)nn(C(C)(C)C)c3n2)cc1
GFP fluorescence, higher = induction: inactive

O=C(OCC(=O)N1CCN(C(=O)c2ccco2)CC1)c1cc(-c2ccc(F)cc2)nc2ccccc12
GFP fluorescence, higher = induction: inactive

N/C(=N\OC(=O)c1ccccc1Cl)c1ccc(Cl)cc1
pEC50: 5.21

Cc1cccc2c1NC(=O)/C2=C\C(=O)c1cccs1
GFP fluorescence, higher = induction: inactive

O=C(Oc1ccnc2cc(Cl)ccc12)N1CCOCC1
GFP fluorescence, higher = induction: inactive

CC(=O)c1ccc(N2CCN(C(=O)c3ccc(Br)cc3)CC2)c(F)c1
GFP fluorescence, higher = induction: inactive

O=[N+]([O-])c1ccc(O)c2ncccc12
GFP fluorescence, higher = induction: inactive

O=C(Oc1oc(-c2ccco2)nc1C=Nc1ccccc1)c1ccoc1
GFP fluorescence, higher = induction: inactive

O=C1N(c2ccccc2C(F)(F)F)O[C@]1(c1ccccc1)C1CCCCC1
GFP fluorescence, higher = induction: inactive

O=C(C#Cc1cccc([N+](=O)[O-])c1)c1ccccc1
GFP fluorescence, higher = induction: inactive

Cc1cc(NC(=O)c2cccnc2Cl)ccc1NC(=O)c1cc2ccccc2o1
GFP fluorescence, higher = induction: inactive

CS(=O)(=O)c1sc(C#N)c2c1C(=O)CC(c1ccccc1)C2 (stereo unspecified)
GFP fluorescence, higher = induction: inactive

O=c1c(-c2ccc(Cl)cc2)[n+]([O-])c2ccccc2n1O
GFP fluorescence, higher = induction: inactive

CS(=O)(=O)N1N=C(c2ccccc2)CC1c1ccc2c(c1)OCO2 (stereo unspecified)
GFP fluorescence, higher = induction: inactive

COc1ccc(C(c2c(C)[nH]n(C(N)=S)c2=O)C(C#N)C#N)cc1 (stereo unspecified)
GFP fluorescence, higher = induction: inactive

CCn1c(/C=C/c2ccc([N+](=O)[O-])o2)nc2ccccc2c1=O
GFP fluorescence, higher = induction: inactive

COc1ccc(C2=CC3=C(Br)C(=O)C(C)(O)C(=O)C3=CO2)cc1 (stereo unspecified)
GFP fluorescence, higher = induction: inactive

CCc1ccc(/C=C/C(=O)c2cc(Br)ccc(=O)c2O)cc1
GFP fluorescence, higher = induction: inactive

CCN1/C(=C/c2ccc3cc(C)ccc3[n+]2CC)Sc2ccc3sccc3c21
GFP fluorescence, higher = induction: inactive

CC(C)C(=O)NC(c1cccs1)c1cc([N+](=O)[O-])c2cccnc2c1O (stereo unspecified)
GFP fluorescence, higher = induction: inactive

Oc1ccc2ccccc2c1/C=N/Nc1nnc(-c2ncc[nH]2)c2ccccc12
GFP fluorescence, higher = induction: inactive

Cc1ccccc1N=Nc1ccc(O)c2ncccc12
GFP fluorescence, higher = induction: inactive

O=C1ON=C(c2ccccc2)/C1=C/c1ccc(-c2ccccc2[N+](=O)[O-])o1
GFP fluorescence, higher = induction: inactive

CCn1c(=O)c(C(=O)Nc2nc3ccccc3[nH]2)c(O)c2ccccc21
GFP fluorescence, higher = induction: inactive

N=C1S/C(=C\c2ccco2)C(=O)N1c1nccs1
GFP fluorescence, higher = induction: inactive

N/C(Cc1ccc(Cl)cc1Cl)=N\OC(=O)c1ccccc1
GFP fluorescence, higher = induction: inactive

COc1ccc(OC)c(S(=O)(=O)ON2C(=O)c3ccccc3C2=O)c1
GFP fluorescence, higher = induction: inactive

N/C(Cc1ccc(Cl)cc1Cl)=N\OC(=O)c1cccs1
pEC50: 5.83

Cc1ccc(N2C(=O)C(Cl)=C(Nc3c(C)n(C)n(-c4ccccc4)c3=O)C2=O)cc1
GFP fluorescence, higher = induction: inactive

COc1cc(N=c2ssnc2Cl)c(OC)cc1Cl
GFP fluorescence, higher = induction: inactive

Oc1c(CN2CCN(c3ccccc3)CC2)cc(Br)c2cccnc12
GFP fluorescence, higher = induction: inactive

Cc1ccc(C2=NOC(=O)/C2=C\c2ccc(C)o2)cc1
GFP fluorescence, higher = induction: inactive
